# According to BindingDB's records for doi:10.7270/Q2CZ35ZF (Southern Research Institute, 2016):
# Molecular target: Cystic fibrosis transmembrane conductance regulator (Homo sapiens, UniProt P13569)
# Sequence (P13569 whole entry): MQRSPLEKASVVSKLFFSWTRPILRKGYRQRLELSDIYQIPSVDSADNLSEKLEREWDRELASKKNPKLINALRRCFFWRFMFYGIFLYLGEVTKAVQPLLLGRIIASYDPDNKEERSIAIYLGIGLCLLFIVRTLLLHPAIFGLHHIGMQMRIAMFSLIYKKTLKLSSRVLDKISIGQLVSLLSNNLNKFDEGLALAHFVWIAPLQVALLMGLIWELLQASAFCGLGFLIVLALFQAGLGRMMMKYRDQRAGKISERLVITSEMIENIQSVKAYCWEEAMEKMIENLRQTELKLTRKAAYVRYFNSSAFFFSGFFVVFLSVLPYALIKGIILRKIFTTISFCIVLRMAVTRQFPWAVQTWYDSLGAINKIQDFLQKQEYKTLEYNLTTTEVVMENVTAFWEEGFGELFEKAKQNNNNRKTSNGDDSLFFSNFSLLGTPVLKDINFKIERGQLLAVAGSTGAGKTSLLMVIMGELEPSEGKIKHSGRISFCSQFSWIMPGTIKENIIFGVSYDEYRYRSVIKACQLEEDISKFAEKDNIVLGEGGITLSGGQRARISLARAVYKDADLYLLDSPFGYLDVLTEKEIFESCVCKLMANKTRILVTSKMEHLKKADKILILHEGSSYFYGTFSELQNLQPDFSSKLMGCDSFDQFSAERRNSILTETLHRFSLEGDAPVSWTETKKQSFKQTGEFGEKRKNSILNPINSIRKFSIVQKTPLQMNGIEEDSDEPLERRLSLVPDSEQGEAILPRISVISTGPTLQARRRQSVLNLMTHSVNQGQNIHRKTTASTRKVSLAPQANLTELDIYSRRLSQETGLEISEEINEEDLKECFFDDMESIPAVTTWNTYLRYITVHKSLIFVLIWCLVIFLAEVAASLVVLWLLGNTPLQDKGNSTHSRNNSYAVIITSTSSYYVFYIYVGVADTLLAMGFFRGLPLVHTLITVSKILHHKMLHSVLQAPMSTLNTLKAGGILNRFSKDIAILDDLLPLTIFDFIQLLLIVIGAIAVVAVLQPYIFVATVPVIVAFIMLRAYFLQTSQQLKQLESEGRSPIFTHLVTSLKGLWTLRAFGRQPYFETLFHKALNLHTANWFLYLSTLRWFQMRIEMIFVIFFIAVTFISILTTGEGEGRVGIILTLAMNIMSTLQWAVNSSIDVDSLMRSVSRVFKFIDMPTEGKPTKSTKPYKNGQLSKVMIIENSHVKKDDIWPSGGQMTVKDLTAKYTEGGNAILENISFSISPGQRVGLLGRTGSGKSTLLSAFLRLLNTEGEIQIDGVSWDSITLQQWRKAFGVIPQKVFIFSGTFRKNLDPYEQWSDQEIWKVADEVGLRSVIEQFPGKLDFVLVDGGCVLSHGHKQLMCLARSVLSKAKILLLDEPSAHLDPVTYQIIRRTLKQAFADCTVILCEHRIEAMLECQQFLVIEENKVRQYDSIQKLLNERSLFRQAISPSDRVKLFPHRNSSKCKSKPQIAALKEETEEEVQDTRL
EC50,IC50,Compound
> 50 µM,1.29 µM,CC(C)C[C@@H](NC(=O)[C@H](Cc1ccccc1)NC(=O)c1cnccn1)B(O)O [AB01275474-01]
> 50 µM,8.88 µM,"Nc1ccc2cc3ccc(N)cc3nc2c1 [acridine-3,6-diamine]"
> 50 µM,–,CC(C)C[C@H](NC(=O)[C@H](Cc1ccccc1)NC(=O)c1cnccn1)B(O)O
> 50 µM,1.55 µM,O=C(CCCCCCC(=O)Nc1ccccc1)NO [Zolinza]
> 50 µM,> 25 µM,"CN(C/C=C/C#CC(C)(C)C)Cc1cccc2ccccc12 [(6,6-Dimethyl-hept-2-en-4-ynyl)-methyl-naphthalen-1-ylmethyl-amine(Terbinafine)]"
> 49 µM,> 49 µM,O=S(=O)(Nc1ccc(-c2cn3cccnc3n2)cc1)c1ccc2c(c1)OCCO2 [AB01003479-01]
> 50 µM,–,CO[C@H]1/C=C/O[C@@]2(C)Oc3c(C)c(O)c4c(c3C2=O)C(=O)/C(=C/NN2CCN(C)CC2)C(=C4O)NC(=O)/C(C)=C\C=C\C(C)[C@H](O)[C@@H](C)[C@@H](O)[C@@H](C)[C@@H](OC(C)=O)[C@@H]1C (some centres undefined) [AB00052086_02]
> 67 µM,> 67 µM,N#Cc1ccc(CN2CCc3cc([N+](=O)[O-])ccc32)c(F)c1 [AB01004372-01]
> 50 µM,–,CO[C@H]1/C=C/O[C@@]2(C)Oc3c(C)c(O)c4c(c3C2=O)C(=O)/C(=C/NN2CCN(C)CC2)C(=C4O)NC(=O)/C(C)=C\C=C\[C@H](C)[C@H](O)[C@@H](C)[C@@H](O)[C@@H](C)[C@H](OC(C)=O)[C@@H]1C [Rifampicin]
> 50 µM,3.43 µM,O=C(O)/C=C/c1ccc(Cn2ccnc2)cc1
> 50 µM,0.14 µM,CCCc1nc(C)c2c(=O)[nH]c(-c3cc(S(=O)(=O)N4CCN(CC)CC4)ccc3OCC)nn12 [CHEBI:46295]
> 67 µM,21 µM,COc1cc(/C=C(/C#N)c2nc(C)cs2)cc2c1OCO2 [AB00984802-01]
> 50 µM,30.2 µM,CCN(CC)CCOc1ccc2c(c1)C(=O)c1cc(OCCN(CC)CC)ccc1-2 [Amixin IC]

Compound,EC50,IC50
O=C(O)c1ccccc1-c1c2cc(Br)c(=O)cc-2oc2[c]([Hg])c(O)c(Br)cc12 [AB00053570_02],> 50 µM,> 50 µM
CN1[C@@H]2CC[C@H]1CC(OC(=O)C(CO)c1ccccc1)C2 (some centres undefined) [AB00694549-11],> 50 µM,21.4 µM
C[n+]1c2cc(N)ccc2cc2ccc(N)cc21 [AB00053810_11],> 50 µM,5.71 µM
